Assay results as given in patent US20240058288A1, “DRUG COCKTAIL FOR TREATMENT OF PARKINSON'S DISEASE, LEWY BODY DISEASE AND MULTIPLE SYSTEM ATROPHY” (ALETA NEUROSCIENCE, LLC, priority 2021, published 2024).
Entries after “also recorded” stand apart in the source; their conditions may differ. Where two headings read alike, the source gives them in different places.

Experiments:
[1] = system: human dopaminergic neurons (iCell DopaNeurons); assay: MPP+-induced neurotoxicity: neurite outgrowth (neurite length, branch points) of iCell DopaNeurons, Incucyte; assay type: cell-based; details: for effects on neurite outgrowth: vs MPP+ alone
Source text: (§1) We conducted an in vitro study of the drugs in Table 1 to evaluate the neuroprotective effects of 44 conditions of treatment (Table 2, experiments 1-41; 51-53) against MPP+-induced neurodegeneration toxicity on human dopaminergic neurons (iCell® DopaNeurons: iPS cell-derived human midbrain floorplate dopaminergic neurons). Further combinations (Table 2, experiments 42-50 and Table 3) are also disclosed.
iCell DOPA neurons are neural floor plate-derived midbrain dopaminergic neurons generated from human induced pluripotent stem cells (iPSCs). Dopaminergic neurons, specifically those located in the floor plate-derived midbrain are implicated in neurological disorders such as Parkinson's disease, MSA and DLBD among others. Thus iCell DopaNeurons provide a highly relevant in vitro model to investigate these types of pathologies (42, 43). The iCellDopa neurons were supplied from FUJIFILM Cellular Dynamics.
(§2) Three different measurements were made in the experiments. 1. Neurite length in mm is a measure of increase in dendrite length of neurons. […] 2. neurite branching is measure of dendrite branching. […] 3. Cytolysis of the cells is a measure of cell death. […] Experimental conditions were measured relative to the results of healthy cells in the studies.
(§3) Procedure. iCell DOPA neurons were thawed and cultured following the provider's instructions in Brainphys medium+provided supplements+1% N2 supplement (Stemcell Technologies)+penicillin/streptomycin+Laminin. They were plated at 20000 cells per well of a 384 well plate (pre-coated with poly-D-lysine and Laminin) in 70 μL of growth medium. Cells were incubated at 37° C./5% CO2 in a humidified cell culture incubator. Half of the culture medium was changed twice a week.
(§4) MPP+-induced neurotoxicity: 24 hours after neuronal plating, half of the medium was removed and the test compounds were applied with MPP+ treatment, both concentrated at 4×, were added to the wells. For each condition, six aliquots were added, corresponding to columns A-F in Table 2. Except for the NT/NT row, in each row, either the compound indicated dissolved in its vehicle noted in Table 1 was added, or only a vehicle was added as indicated. Column F is an indicator of whether MPP+ was added. If not, only the medium was added.
(§5) For the evaluation of conditions 1-28, Neurite outgrowth was followed for subsequent 48 hours using an Incucyte Zoom platform with one phase contrast image every 4 hours, using a 20× objective. After 48 hours, the medium containing test compounds and MPP+ was removed and replaced by fresh medium containing a fluorescent cytolysis marker (red fluorescence) and a live cell marker (green fluorescence). For the evaluation of conditions 29-53, Neurite outgrowth was followed similarly for subsequent 72 hours after MPP+ was added.
Each condition 1-41 and 51-53 was repeated in 8 wells of a 384 well plate, that is, each test condition studied in Table 2 was repeated eight times. NT/NT were cells in the standard medium only. Control/NT are the cells in the vehicle (as described above), with and without MPP+.
Assay endpoints and data analysis. Phase contrast images were analyzed at each time point to determine the neurite length and number of branch points per mm^2. Kinetic data was plotted and kinetics were normalized by subtracting the value of the first data point (at time of treatment), allowing to measure changes in neurite outgrowth only from the onset of the treatment, starting at zero. Area Under Curve (AUC) of kinetic data was obtained and used for plotting compound's effects and perform statistical analyzes.
(§6) Statistical analysis. We used one-way ANOVA followed by Bonferroni's multiple comparisons test.

[2] = system: human dopaminergic neurons (iCell DopaNeurons); assay: MPP+-induced neurotoxicity: cytolysis of iCell DopaNeurons; assay type: cell-based
Source text: as §1, §2, §3, §4, §5
Data was normalized to control conditions as there is basal cytolysis in the cell culture after thawing.
Fluorescently immuno-stained cells were imaged on a high content imaging platform. Individual segmentation of cells was performed by image analysis of the MAP2 and NeuN staining. The number of neurons and the neurite length were measured. The percentage of cytolyzed cells was also calculated.
as §6

[3] = system: IL-1β; assay: LPS/ATP-induced IL-1β in human microglia cells; assay type: cell-based; details: as compared with […] distilled water in presence of LPS and ATP
[4] = system: CXCL1/GROα; assay: LPS/ATP-induced CXCL1/GROα secretion by human microglia cells (Luminex); assay type: cell-based
Source text: (§7) In addition to the studies discussed above assessing activity of combinations of drugs on MPP+-induced neurodegeneration toxicity on human dopaminergic neurons and measuring neuronal growth and neurite branching, we also assessed combinations of drugs in reducing lipopolysaccharide (LPS, from E. coli)-induced neuroinflammation.
(§8) Lipopolysaccharides are important outer membrane components of gram-negative bacteria such as E. coli and salmonella. They are large amphipathic glycoconjugates that typically consist of a lipid domain (hydrophobic) attached to a core oligosaccharide and a distal polysaccharide. LPS binds to Toll-like receptor 4 (TLR4) and activates microglia (51) which in turn increases secretion of pro-inflammatory cytokines such as interleukin-6 (IL-6), tumor necrosis factor-α (TNF-α), and CXCL1/GROα.
(§9) Microglia cells were obtained from an iCell® Microglia kit, 01279 (Catalogue N° R1131) from FUJIFILM Cellular Dynamics. We followed the manufacturer's protocol for activation of the microglial cells with LPS/ATP to subsequently measure the effect of the study drugs on pro-inflammatory cytokines IL-6, TNF-α and CXCL1/GROα.
(§10) All cell culture procedures were performed in aseptic conditions, under a laminar flow hood. Microglia were thawed and cultured following the provider's instructions. The microglia were plated at 50,000 cells per well of a Corning Primaria 96 well plate (Ref N° 353872) in 100 μL of growth medium. Cells were incubated at 37° C./5% CO2 in a humidified cell culture incubator.
(§11) Three days after cell plating, the test or reference substances (25 μL of solutions at 5×) were applied 1 hour before LPS and ATP stimulation.
(§12) One hour later, 12.5 μL of test or reference substances were added again at 2× concentrated followed by 12.5 μL of LPS at 12× concentration. Fifty microliters of ATP were introduced at 4× concentration, 5 h 30 min after incubation with LPS.
(§13) Six hours after LPS incubation, the supernatant of each well was collected and centrifugated at 1000 g for 10 minutes to remove the cells and debris.
(§14) Fifty microliters of supernatant from NT and LPS+ATP-treated wells were used to determine cytokine secretion (IL-6, TNF-α, CXCL1/GROα) by Luminex platform according to the provider's instructions. Samples were diluted prior to the assay to fit within the standard range if needed. Three wells were tested per each condition (Table 10). Cytokines levels in the supernatant were expressed in pg/mL. The data was analyzed using a One-Way ANOVA followed by Bonferroni test.

[5] = system: TNF-α; assay: LPS/ATP-induced TNF-α secretion by human microglia cells (Luminex); assay type: cell-based
Source text: as §7, §8, §9, §10, §11, §12, §13, §14

[6] = system: IL-6; assay: LPS/ATP-induced IL-6 secretion by human microglia cells (Luminex); assay type: cell-based; details: for anti-inflammatory effect on activated microglia, all three cytokines: LPS and ATP, IL-6, TNF-α, GROα together (FIG. 8, 9, 10)
Source text: as §7, §8, §9, §10, §11, §12, §13, §14

[7] = pre-treatment 50 mg/kg for 3 days; cited from earlier work
[8] = system: PrP; details: cell-free aggregation assays, chronically and acutely infected cell cultures; cited from earlier work
[9] = chronic PD and DLBD mouse models; cited from earlier work
[10] = MPP+ 100 μM, Table 6.1 (FIG. 6A), followed 72 hours, PCI 30 μM
[11] = MPP+ 100 μM, Table 7.1 (FIG. 6B), followed 72 hours, PCI 30 μM
[12] = MPP+ 100 μM, Table 8.1 (FIG. 6C), PCI 30 μM
[13] = as compared with […] distilled water in presence of LPS and ATP
[14] = LPS 100 ng/mL + ATP 5 mM, 6 h after LPS, TAK-242 2 μM, MCC950 10 μM
[15] = LPS 100 ng/mL + ATP 5 mM, 6 h after LPS, three wells, TAK-242 2 μM, MCC950 10 μM

CC(C)[C@H](NC(=O)c1ccc2ccccc2n1)C(=O)N[C@@H](CC(=O)O)C(=O)COc1c(F)cccc1F [PCI/MPP+, Q-VD-OPh]
Neurite Branching Data, Plate 1, Mean ± S.D. [1]: 38456.3 ± 11570.7 per mm^2 | Neurite Branching Data, Plate 2, Mean ± S.D. [1]: 52610.1 ± 16660.1 per mm^2 | Neurite length data, plate 1, Mean [1]: 1301.0 mm/mm^2 | Neurite length, plate 2, Mean ± S.D. [1]: 1430.1 ± 321.7 mm/mm^2 | Cytolysis, %, Plate 1, Mean ± S.D. [2]: 65.56 ± 1.89% | Cytolysis, %, Plate 2, Mean ± S.D. [2]: 67.93 ± 3.52%

Nc1c(Br)cc(Br)cc1CN[C@H]1CC[C@H](O)CC1 [AMB, Ambroxol]
Neurite Length Data, Mean ± S.D. ([1]; MPP+ 100 μM, Table 5.1 (FIG. 5A), conditions 17-28, AUC of kinetic data): 763.9 ± 209.8 mm/mm^2 | Neurite Branching Data, Mean ± S.D. ([1]; MPP+ 100 μM, Table 5.2 (FIG. 5B), conditions 17-28, AUC of kinetic data): 20281.6 ± 8723.4 per mm^2 | Neurite length, plate 2, Mean ± S.D. ([1]; MPP+ 100 μM, Table 6.2 (FIG. 7A), followed 72 hours, PCI 30 μM): 1332.1 ± 174.8 mm/mm^2 | effects on neurite outgrowth ([1]; MPP+ 100 μM): no significant effects | Cytolysis, %, Plate 2, Mean ± S.D. ([2]; MPP+ 100 μM, Table 8.2 (FIG. 7C), PCI 30 μM): 73.29 ± 2.23%

COc1cc2nc(N3CCN(C(=O)C4CCCO4)CC3)nc(N)c2cc1OC (stereo not drawn) [TZ, Terazosin]
Neurite length data, plate 1, Mean [1, 10]: 1102.2 mm/mm^2 | Neurite Branching Data, Plate 1, Mean ± S.D. [1, 11]: 31244.4 ± 12478.9 per mm^2 | effects on neurite outgrowth ([1]; MPP+ 100 μM): no significant effects | Cytolysis, %, Plate 1, Mean ± S.D. [2, 12]: 72.78 ± 2.29%

CCOC(=O)C1=CCCC[C@H]1S(=O)(=O)Nc1ccc(F)cc1Cl [TAK-242]
concentration of IL-1β [3]: significantly decreased | concentration of GROα [4, 13]: significantly decreased | concentration of TNF-α [5, 13]: significantly decreased | concentration of IL-6 [6, 13]: significantly decreased

C[C@H](CCC(=O)NCCS(=O)(=O)O)[C@H]1CC[C@H]2[C@@H]3[C@@H](O)C[C@@H]4C[C@H](O)CC[C@]4(C)[C@H]3CC[C@]12C [TUDCA, tauroursodeoxycholic acid]
neurodegeneration of the nigral dopaminergic neurons caused by MPTP [7]: significantly reduced neurodegeneration | PrP conversion [8]: substantially reduced PrP conversion | Neurite length data, plate 1, Mean [1, 10]: 1825.9 mm/mm^2 | Neurite Branching Data, Plate 1, Mean ± S.D. [1, 11]: 58836.3 ± 9596.4 per mm^2 | neurite length increased as compared with MPP+ alone ([1]; MPP+ 100 μM, conditions 29-53, followed 72 hours (FIG. 6A, 7A)): 43% | number of branches increased as compared with MPP+ alone ([1]; MPP+ 100 μM, conditions 29-53, followed 72 hours (FIG. 6B, 7B)): 60% | anti-inflammatory effect on activated microglia, all three cytokines [6]: Anti-inflammatory effects of the individual drugs were observed | Cytolysis, %, Plate 1, Mean ± S.D. [2, 12]: 70.69 ± 2.02%

CC(C)(O)c1coc(S(=O)(=O)NC(=O)Nc2c3c(cc4c2CCC4)CCC3)c1 [MCC950]
concentration of IL-1β [3]: significantly decreased | concentration of TNF-α [5, 13]: significantly decreased | concentration of IL-6 [6, 13]: significantly decreased

Sodium Phenylbutyrate [PBA]
CXCL1/GROα in supernatant, Replicate 1 [4, 14]: 627.29 pg/mL | CXCL1/GROα in supernatant, Replicate 2 [4, 14]: 383.60 pg/mL | CXCL1/GROα in supernatant, Replicate 3 [4, 14]: 476.49 pg/mL | CXCL1/GROα in supernatant, Mean ± S.D. [4, 15]: 495.79 ± 122.99 pg/mL | Neurite Branching Data, Plate 1, Mean ± S.D. [1]: 46742.8 ± 7107.5 per mm^2 | Neurite length - Baseline-corrected AUC (0-72 h), Mean [1]: 853.7 mm/mm^2 | Neurite length data, plate 1, Mean [1]: 1681.1 mm/mm^2 | Number of branch points per mm^2 - Baseline-corrected AUC (0-72 h), Mean [1]: 41712.8 per mm^2 | number of branches as compared with MPP+ alone [1]: significantly increased | number of branches increased as compared with MPP+ alone (control/MPP+) [1]: 89% | protective effect against MPP+ [1]: showed the protective effect, but to a substantially lesser effect than when combined; also recorded: showed protective effect, but it was not statistically significant | disease progression [9]: halted the disease progression | TNF-α in supernatant, Replicate 1 [5, 14]: 32.67 pg/mL | TNF-α in supernatant, Replicate 2 [5, 14]: 35.47 pg/mL | TNF-α in supernatant, Replicate 3 [5, 14]: 32.24 pg/mL | TNF-α in supernatant, Mean ± S.D. [5, 15]: 33.46 ± 1.75 pg/mL | decrease of TNF-α concentration [5, 13]: 44% | IL-6 in supernatant, Replicate 1 [6, 14]: 396.23 pg/mL | IL-6 in supernatant, Replicate 2 [6, 14]: 363.94 pg/mL | IL-6 in supernatant, Replicate 3 [6, 14]: 305.53 pg/mL | IL-6 in supernatant, Mean ± S.D. [6, 15]: 355.23 ± 45.97 pg/mL | anti-inflammatory effect on activated microglia, all three cytokines [6]: Anti-inflammatory effects of the individual drugs were observed | decrease of IL-6 concentration [6, 13]: 49% | Cytolysis, %, Plate 1, Mean ± S.D. [2]: 72.06 ± 1.77%
